Source: ChEMBL document CHEMBL1136341, “Synthesis and evaluation of chiral bicyclic proline FKBP12 ligands” (Bioorg Med Chem Lett, 2003)

Assay: In vitro binding affinity towards FKBP12 domain of peptidyl-propyl isomerase (PPIase)

IC50	SMILES
5100 nM	CCC(C)(C)C(=O)C(=O)N1C2CCC(C2)[C@@H]1C(=O)OCCCCc1ccccc1 (stereo partly specified)
720 nM	O=C(SCCCc1ccccc1)[C@@H]1C2CCC(C2)N1S(=O)(=O)Cc1ccccc1 (stereo partly specified)
650 nM	O=C(OCCCc1ccccc1)[C@@H]1C2CCC(C2)N1S(=O)(=O)c1ccccc1 (stereo partly specified)
> 25000 nM	CCC(C)(C)C(=O)C(=O)N1C2CCC(C2)[C@@H]1C(=O)OCCCc1ccccc1 (stereo partly specified)
670 nM	CCC(C)(C)C(=O)C(=O)N1C2CCC(C2)[C@H]1C(=O)OCCCc1ccccc1 (stereo partly specified)
710 nM	CCC(C)(C)C(=O)C(=O)N1C2CCC(C2)[C@H]1C(=O)OCCCCc1ccccc1 (stereo partly specified)
910 nM	O=C(SCCCc1ccccc1)[C@@H]1C2CCC(C2)N1S(=O)(=O)c1ccccc1 (stereo partly specified)
> 25000 nM	CCC(C)(C)C(=O)C(=O)N1C2CCC(C2)[C@@H]1C(=O)OCCCc1ccncc1 (stereo partly specified)
9.2 nM	O=C1CC2CCCC(Sc3ccccc3)(C1)C2 (stereo unspecified)
15000 nM	CCC(C)(C)C(=O)C(=O)N1C2CCC(C2)[C@H]1C(=O)OCCCc1ccncc1 (stereo partly specified)
22000 nM	CCC(C)(C)C(=O)C(=O)N1C2CCC(C2)[C@@H]1C(=O)SCCCc1ccccc1 (stereo partly specified)
2300 nM	CCC(C)(C)C(=O)C(=O)N1C2CCC(C2)[C@H]1C(=O)SCCCc1ccccc1 (stereo partly specified)
1300 nM	O=C(OCCCc1ccccc1)[C@@H]1C2CCC(C2)N1S(=O)(=O)Cc1ccccc1 (stereo partly specified)
980 nM	CCC(C)(C)C(=O)C(=O)N1C2CCC(C2)[C@H]1C(=O)SCCC(c1ccccc1)c1ccccc1 (stereo partly specified)
> 25000 nM	CCC(C)(C)C(=O)C(=O)N1C2CCC(C2)[C@@H]1C(=O)SCCC(c1ccccc1)c1ccccc1 (stereo partly specified)
0.28 nM	COc1cc(C(=O)C(=O)N2C3CCCC2C(=O)OCCCCOC3=O)cc(OC)c1OC
